Experimental findings from publication PMC12632313 (bioRxiv, 2025) are described below.

The nature of this data set: Ex-vivo stability in mouse whole blood. The conditions noted are these: male, C57BL/6, mouse. Type of data set: in vitro ADME.

In the case of “H-RPPGFSPFR-OH [Bradykinin (BK), Bradykinin]”, the half-life stood at 3.9 ± 1.3 min.
